# US20100311642A1, “USE OF V2 RECEPTOR ANTAGONISTS IN COMBINATION WITH VASO PRESSINERGIC AGNOSTS” (Ferring B.V., priority 2007, published 2010)
# Entries after “also recorded” stand apart in the source; their conditions may differ. Positions of bridges follow the written chain, without caps; N, C: chain ends. Residues, ends and D or L forms follow the SMILES beside them.
# Tests used:
# rat V2 receptor (rV2R) [1] = target: T1, rat V2 receptor (rV2R) (Rattus norvegicus, UniProt Q00788); test: Agonist transcriptional reporter gene assay, rat V2 receptor; format: cell-based; details: rV2, HEK-293 reporter gene
# T1 construct: expressed in transfected cells; host or cells: HEK-293
# sheep model of sepsis = test: Sheep model of sepsis (smoke inhalation + Pseudomonas aeruginosa); format: in vivo; details: septic sheep, continuous i.v. infusion titrated, 24 hours
# Text: A. Description of Model & Experimental Design • Septic shock is caused by hypotension secondary to vasodilation. […] The combination of a selective V2 receptor agonist, desmopressin, and a selective V1a receptor agonist models to some extent the non-selective V1a/V2 receptor agonist activity of vasopressin and other related compounds having non-selective activity.
# Method: Sheep are surgically instrumented ahead of the study. After obtaining baseline data, they are anesthetized and insufflated with 48 breaths of cotton smoke and 10^11 colony forming units of Pseudomonas aeruginosa instilled into their airways via a tracheostomy. The sheep are then placed on a ventilator and awakened for the study. They are resuscitated with Ringer's solution to maintain left atrial and central venous pressures and hematocrit at baseline levels. If, despite fluid management, mean arterial pressure (MAP) falls by 10 mm Hg from baseline, a continuous intravenous infusion of AVP, the selective V1a receptor agonist, or the selective V1a receptor agonist+the selective V2 agonist desmopressin is initiated and titrated to keep MAP within this limit, except in a septic control group and in a non-septic sham group. Parameters measured include Mean Arterial Pressure (a measure of vasodilation/hypotension) and Fluid Balance (a measure of vascular leak).
# Additional information about sepsis model and method available in Murakami K, Bjertnaes L T, Schmalstieg F C, McGuire R, Cox R A, Hawkins H K, Herndon D N, Traber L D, Traber D L (2002): A novel animal model of sepsis after acute lung injury in sheep. Crit. Care Med, 30:2083-2090.
# [2] = test system: venular microvessels in rat mesentery; test: Rat mesenteric post-capillary venule permeability (hydraulic conductivity Lp, PAF); details: PAF 10 nM
# Method: We tested the hypothesis that the selective V2 receptor agonist desmopressin would potentiate the increase in microvessel permeability induced by platelet activating factor [PAF], an inflammatory mediator involved in sepsis.
# Method: Individual venular microvessels in rat mesentery were cannulated and perfused with mammalian Ringer containing 10 mg/ml albumin to measure hydraulic conductivity (Lp) by the modified Landis technique. The vessels were then exposed to PAF (10 nM) with monitoring of hydraulic conductivity (Lp). The same vessels are then exposed to a selective V2 receptor agonist, desmopressin, followed by a second exposure to PAF with monitoring of hydraulic conductivity (Lp).
# Additional information about microvascular permeability model and method available in Curry, FE, “The Measurement of Hydraulic Conductivity”, Microcirculatory Technology, Academic Press, 1986, pp 429-446.
# human V2 receptor (hV2R) [3] = target: T2, human V2 receptor (hV2R) (Homo sapiens, UniProt P30518); test: Antagonist transcriptional reporter gene assay, human V2 receptor; format: cell-based; details: hV2, HEK-293 reporter gene, vs AVP
# T2 construct: expressed in transfected cells; host or cells: HEK-293
# Method: (§1) Agonist activity of compounds on the human V2 receptor (hV2R) and the rat V2 receptor (rV2R) was determined in a transcriptional reporter gene assay in which HEK-293 cells were transiently transfected with either the human or rat V2 receptor, and a reporter DNA containing cyclic-AMP responsive promoter elements regulating expression of firefly luciferase. See Castarion, M. J., Spevak, W., Biochem Biophys Res Commun.1994 Jan.
# (§2) Antagonist activity of compounds on the human V2 receptor (hV2R) and the rat V2 receptor (rV2R) was determined in a transcriptional reporter gene assay as in section III.A; see Castañón, M. J. et al. supra. […] Ki values were calculated from IC50 values.
# [4] = target: T3, human V1a receptor (hV1aR) (Homo sapiens, UniProt P37288); test: Antagonist transcriptional reporter gene assay, human V1a receptor; format: cell-based; details: hV1a, HEK-293 reporter gene, vs AVP
# T3 construct: expressed in transfected cells; host or cells: HEK-293
# Method: (§3) Agonist activity of compounds on the human V1a receptor (hV1aR) and the rat V1a receptor (rV 1 aR) was determined in a transcriptional reporter gene assay in which HEK-293 cells were transiently co-transfected with either the human or rat V1a receptor, and a reporter DNA containing intracellular calcium responsive promoter elements regulating expression of firefly luciferase.
# (§4) Antagonist activity of compounds on the human V1a receptor (hV1aR) and the rat V1a receptor (rV 1 aR) was determined in a transcriptional reporter gene assay as in section III.A; see Boss, V. et al. supra. […] Ki values were calculated from IC50 values.
# rat V2 receptor (rV2R) [5] = target: T1, rat V2 receptor (rV2R); test: Antagonist transcriptional reporter gene assay, rat V2 receptor; format: cell-based; details: rV2, HEK-293 reporter gene, vs AVP; for Ki: Ki calculated from IC50, read-out: Geomean Ki
# Method: as §1, §2
# rat V1a receptor (rV1aR) [6] = target: T4, rat V1a receptor (rV1aR) (Rattus norvegicus, UniProt P30560); test: Antagonist transcriptional reporter gene assay, rat V1a receptor; format: cell-based; details: rV1a, HEK-293 reporter gene, vs AVP; for Ki: Ki calculated from IC50, read-out: Geomean Ki
# T4 construct: expressed in transfected cells; host or cells: HEK-293
# Method: as §3, §4
# human V2 receptor (hV2R) [7] = target: T2, human V2 receptor (hV2R); test: Agonist transcriptional reporter gene assay, human V2 receptor; format: cell-based; details: hV2, HEK-293 reporter gene; for EC50: 5 hours
# [8] = target: T3, human V1a receptor (hV1aR); test: Agonist transcriptional reporter gene assay, human V1a receptor; format: cell-based; details: hV1a, HEK-293 reporter gene; for EC50: 5 hours
# rat V1a receptor (rV1aR) [9] = target: T4, rat V1a receptor (rV1aR); test: Agonist transcriptional reporter gene assay, rat V1a receptor; format: cell-based; details: rV1a, HEK-293 reporter gene
# [10] = Ki calculated from IC50, read-out: Geomean Ki
# T4 sequence (P30560 whole entry): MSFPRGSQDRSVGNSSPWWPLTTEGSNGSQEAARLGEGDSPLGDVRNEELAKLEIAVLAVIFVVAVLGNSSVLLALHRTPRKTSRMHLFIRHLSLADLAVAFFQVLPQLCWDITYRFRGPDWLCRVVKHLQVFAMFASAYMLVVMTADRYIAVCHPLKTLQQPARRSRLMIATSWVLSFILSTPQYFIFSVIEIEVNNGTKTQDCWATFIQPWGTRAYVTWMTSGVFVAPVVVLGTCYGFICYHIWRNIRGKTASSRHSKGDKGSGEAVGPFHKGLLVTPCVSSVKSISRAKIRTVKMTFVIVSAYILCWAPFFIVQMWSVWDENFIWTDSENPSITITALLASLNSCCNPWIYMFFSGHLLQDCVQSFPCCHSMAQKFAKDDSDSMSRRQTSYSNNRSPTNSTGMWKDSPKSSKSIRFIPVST
# T2 sequence (P30518 whole entry): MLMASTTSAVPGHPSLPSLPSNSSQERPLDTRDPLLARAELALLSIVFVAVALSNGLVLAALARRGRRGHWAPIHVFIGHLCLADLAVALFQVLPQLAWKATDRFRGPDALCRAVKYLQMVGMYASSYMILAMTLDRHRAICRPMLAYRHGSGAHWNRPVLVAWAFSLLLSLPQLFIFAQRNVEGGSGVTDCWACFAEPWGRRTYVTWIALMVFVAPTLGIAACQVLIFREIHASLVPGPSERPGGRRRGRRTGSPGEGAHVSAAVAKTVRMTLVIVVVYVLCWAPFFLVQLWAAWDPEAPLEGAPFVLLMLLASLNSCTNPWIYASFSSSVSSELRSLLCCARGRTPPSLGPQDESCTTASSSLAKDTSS
# T1 sequence (Q00788 whole entry): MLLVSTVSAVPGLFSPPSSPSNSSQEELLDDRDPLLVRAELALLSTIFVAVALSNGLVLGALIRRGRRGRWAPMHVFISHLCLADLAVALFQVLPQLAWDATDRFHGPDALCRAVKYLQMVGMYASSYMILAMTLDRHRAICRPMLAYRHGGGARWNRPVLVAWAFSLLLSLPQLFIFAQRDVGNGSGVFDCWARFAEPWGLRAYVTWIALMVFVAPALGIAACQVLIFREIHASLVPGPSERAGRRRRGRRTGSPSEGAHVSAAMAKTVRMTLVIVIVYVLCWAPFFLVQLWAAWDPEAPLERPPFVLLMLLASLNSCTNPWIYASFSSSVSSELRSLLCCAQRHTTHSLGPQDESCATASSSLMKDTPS
# T3 sequence (P37288 whole entry): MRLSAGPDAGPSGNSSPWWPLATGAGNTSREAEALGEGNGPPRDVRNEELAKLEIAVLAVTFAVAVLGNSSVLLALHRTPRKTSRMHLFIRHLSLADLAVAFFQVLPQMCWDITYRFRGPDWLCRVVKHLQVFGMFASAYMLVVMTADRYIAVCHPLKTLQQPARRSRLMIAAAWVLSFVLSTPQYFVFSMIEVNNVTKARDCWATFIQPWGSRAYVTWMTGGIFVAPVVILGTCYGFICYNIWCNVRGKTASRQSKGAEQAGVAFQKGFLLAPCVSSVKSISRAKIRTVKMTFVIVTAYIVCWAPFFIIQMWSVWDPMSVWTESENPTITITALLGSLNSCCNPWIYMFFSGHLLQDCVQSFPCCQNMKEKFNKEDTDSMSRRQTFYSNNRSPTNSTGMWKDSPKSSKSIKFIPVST
compound,measurement,setting,value
"NC(=O)CC[C@@H]1NC(=O)[C@H](Cc2ccccc2)NC(=O)[C@H](Cc2ccc(O)cc2)NC(=O)[C@@H](N)CSSC[C@@H](C(=O)N2CCC[C@H]2C(=O)N[C@@H](CCCN=C(N)N)C(=O)NCC(N)=O)NC(=O)[C@H](CC(N)=O)NC1=O [Arginine vasopressin, AVP, arginine vasopressin]",Efficacy,rat V2 receptor (rV2R) [1],100%
same,Fluid retention / vascular leak (fluid balance),sheep model of sepsis,showed symptoms of vascular leak syndrome; also recorded: less effective
same,Mean arterial pressure (MAP),sheep model of sepsis,efficacious in maintaining mean arterial pressure; also recorded: less effective
NC(=O)CC[C@@H]1NC(=O)[C@H](Cc2ccccc2)NC(=O)[C@H](Cc2ccc(O)cc2)NC(=O)CCSSC[C@@H](C(=O)N2CCC[C@H]2C(=O)N[C@H](CCCN=C(N)N)C(=O)NCC(N)=O)NC(=O)[C@H](CC(N)=O)NC1=O [desmopressin],Fluid retention / vascular leak (fluid balance),sheep model of sepsis,decreased the effectiveness of the V1a agonist to the level of AVP
same,Mean arterial pressure (MAP),sheep model of sepsis,decreased the effectiveness of the V1a agonist to the level of AVP
same,peak Lp with PAF in presence of desmopressin relative to peak Lp with PAF alone,[2]; desmopressin 10 pM for 40 minutes,not increased
same,peak Lp with PAF in presence of desmopressin relative to peak Lp with PAF alone,"[2]; desmopressin 30 pM for 40 minutes, ±0.4 SEM, n=8",2.1 fold
same,peak Lp with PAF in presence of desmopressin relative to peak Lp with PAF alone,"[2]; desmopressin 100 pM for 40 minutes, ±0.9 SEM, n=5",2.8 fold
Cc1ccccc1C(=O)Nc1ccc(C(=O)N2CCCC(N(C)C)c3ccccc32)cc1 (stereo not drawn) [mozavaptan],Efficacy Antag,human V2 receptor (hV2R) [3],107%
same,Efficacy Antag,[4],85%
same,Efficacy Antag,rat V2 receptor (rV2R) [5],85%
same,Efficacy Antag,rat V1a receptor (rV1aR) [6],40%
"ornithine vasopressin [[Orn8] Vasopressin, OVP]",Efficacy,rat V2 receptor (rV2R) [1],111%
CCOc1ccc2c(c1)C1(CCC(OCCN3CCOCC3)CC1)C(=O)N2S(=O)(=O)c1ccc(C(=O)NC(C)(C)C)cc1OC (stereo not drawn) [satavaptan],Efficacy Antag,human V2 receptor (hV2R) [3],109%
same,Ki,human V2 receptor (hV2R) [3]; [10],1.5 nM
same,Efficacy Antag,[4],10%
same,Ki,[4]; [10],> 950 nM
same,Efficacy Antag,rat V2 receptor (rV2R) [5],100%
same,Ki,rat V2 receptor (rV2R) [5],0.6 nM
same,Efficacy Antag,rat V1a receptor (rV1aR) [6],6%
same,Ki,rat V1a receptor (rV1aR) [6],> 338 nM
Cc1ccccc1C(=O)Nc1ccc(C(=O)N2CCCC(O)c3cc(Cl)ccc32)c(C)c1 (stereo not drawn) [tolvaptan],Efficacy Antag,human V2 receptor (hV2R) [3],97%
same,Efficacy Antag,[4],101%
same,Efficacy Antag,rat V2 receptor (rV2R) [5],102%
same,Ki,rat V2 receptor (rV2R) [5],3.3 nM
same,Efficacy Antag,rat V1a receptor (rV1aR) [6],26%
same,Ki,rat V1a receptor (rV1aR) [6],> 338 nM
Cc1nc2c([nH]1)-c1ccccc1N(C(=O)c1ccc(NC(=O)c3ccccc3-c3ccccc3)cc1)CC2 [conivaptan],Efficacy Antag,human V2 receptor (hV2R) [3],92%
same,Efficacy Antag,[4],81%
same,Efficacy Antag,rat V2 receptor (rV2R) [5],97%
same,Efficacy Antag,rat V1a receptor (rV1aR) [6],99%
"NCCCC[C@H](NC(=O)[C@@H]1CCCN1C(=O)[C@@H]1CSSC[C@H](N)C(=O)N[C@@H](Cc2ccc(O)cc2)C(=O)N[C@@H](Cc2ccccc2)C(=O)N[C@@H](CCC(N)=O)C(=O)N[C@@H](CC(N)=O)C(=O)N1)C(=O)NCC(N)=O [Lysine Vasopressin, LVP, lysine vasopressin]",Efficacy,human V2 receptor (hV2R) [7],92%
same,EC50,human V2 receptor (hV2R) [7],0.28 nM
same,Efficacy,[8],98%
same,EC50,[8],0.94 nM
same,Efficacy,rat V2 receptor (rV2R) [1],99%
same,EC50,rat V2 receptor (rV2R) [1]; 5 hours,1.11 nM
same,Efficacy,rat V1a receptor (rV1aR) [9],99%
same,EC50,rat V1a receptor (rV1aR) [9]; 5 hours,0.2 nM
"[Pmp1,D-Ile2,Ile4,Arg8]vasopressin [[Pmp1, D-Ile2, Ile4]AVP]",Efficacy Antag,rat V2 receptor (rV2R) [5],97%
"[Pmp1,D-Ile2,Ile4,Arg8]vasopressin-(1-8)-OH [[Pmp1, D-Ile2, Ile4]AVP-(1-8)-OH]",Efficacy Antag,rat V2 receptor (rV2R) [5],105%
"NCCCC[C@H](NC(=O)[C@@H]1CCCN1C(=O)[C@@H]1CSSC[C@H](NC(=O)CNC(=O)CNC(=O)CN)C(=O)N[C@@H](Cc2ccc(O)cc2)C(=O)N[C@@H](Cc2ccccc2)C(=O)N[C@@H](CCC(N)=O)C(=O)N[C@@H](CC(N)=O)C(=O)N1)C(=O)NCC(N)=O [H-Gly3-LVP, terlipressin, terlipressin] (H-GGGCYFQNCPKG-NH2; disulfide 4-9)",Efficacy,human V2 receptor (hV2R) [7],79%
same,EC50,human V2 receptor (hV2R) [7],121 nM
same,Efficacy,[8],66%
same,EC50,[8],124 nM
